# Reference: article PMC11078216, “Discovery of potent and selective activity-based probes (ABPs) for the deubiquitinating enzyme USP30” (RSC Chemical Biology, 2024)
# Biological target: T1, RTN1 (Homo sapiens, UniProt Q16799)
# T1 construct: endogenous in cells; host or cells: HEK293T
# T1 sequence (Q16799 1-776): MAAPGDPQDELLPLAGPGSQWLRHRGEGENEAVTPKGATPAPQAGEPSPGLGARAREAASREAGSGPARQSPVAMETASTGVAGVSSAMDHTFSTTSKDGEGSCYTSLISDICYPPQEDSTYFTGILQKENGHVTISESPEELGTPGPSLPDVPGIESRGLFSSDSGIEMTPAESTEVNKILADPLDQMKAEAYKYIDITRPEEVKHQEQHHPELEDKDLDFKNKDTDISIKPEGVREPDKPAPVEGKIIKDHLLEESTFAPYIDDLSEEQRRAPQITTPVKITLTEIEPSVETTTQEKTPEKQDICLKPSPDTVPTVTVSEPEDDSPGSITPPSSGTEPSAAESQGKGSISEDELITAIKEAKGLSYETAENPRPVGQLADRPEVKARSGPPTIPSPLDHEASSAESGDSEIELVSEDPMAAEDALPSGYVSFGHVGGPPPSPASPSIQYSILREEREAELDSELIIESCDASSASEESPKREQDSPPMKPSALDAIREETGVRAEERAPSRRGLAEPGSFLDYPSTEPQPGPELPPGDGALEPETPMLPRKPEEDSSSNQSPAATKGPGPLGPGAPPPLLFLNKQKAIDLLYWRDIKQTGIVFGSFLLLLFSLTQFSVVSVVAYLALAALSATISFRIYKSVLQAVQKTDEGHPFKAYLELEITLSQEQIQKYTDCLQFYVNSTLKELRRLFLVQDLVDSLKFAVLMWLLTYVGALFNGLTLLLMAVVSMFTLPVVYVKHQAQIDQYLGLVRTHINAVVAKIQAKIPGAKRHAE
# Test: ABPP chemical proteomics (LC-MS/MS) in HEK293T cells
# Type: cell-based
# Procedure: To explore the selectivity of IMP-2587 and IMP-2586 across the whole proteome, we performed quantitative activity-based protein profiling (ABPP) in HEK293T cells following treatment with IMP-2587 or IMP-2586 (Fig. 3a). After ABP incubation, cells were lysed, and probe-labelled proteins were ligated to biotinylated capture reagents.[27] […] USP30 was outcompeted by corresponding parent inhibitors for each ABP (Fig. 5b and d and Tables S3 and S5, ESI ^†), confirming the high potency and rapid engagement of IMP-2587 and IMP-2586 in cells. […] DESI1 and DESI2 are small ubiquitin-related modifier (SUMO) proteases,[3,29–32] and IMP-2587 and IMP-2586 may offer a starting point for future development of DESI ABPs. […]
# d) Live cell probe incubation, lysate click chemistry and precipitation 6-well HEK293T cells were incubated with media containing compounds ABP 2 and ABP 4 at indicated […]
# The cells were washed with PBS and lysed with lysis buffer (50 μL (1% (v/v) Triton X-100, 0.1% (w/v) sodium dodecyl sulfate (SDS), EDTA-free complete protease inhibitor cocktail (1×, Roche) in PBS on ice for 10 min. The lysates were scraped and transferred to corresponding Lo-Bind Eppendorfs. Each lysate was sonicated for 1 minute, and the samples centrifuges at 5,000 x g at 4 °C for 5 minutes to pellet insoluble cellular debris. The supernatant was collected, and protein concentration was determined using the DC Protein Assay (Bio-Rad) as per manufacturer’s instructions, and normalised to lowest concentrated sample (e.g. 1 mg/mL, using lysis buffer). The following “click mixture” was prepared separately, preparing 6 μL for every 100 μL of […]
# Capture reagent (AzRB/AzT for ABP 2, YnT/YnB for ABP 4 10 mM in DMSO, 1 vol; final concentration […]
# CuSO4 (50 mM in water, 2 vol; final concentration in reaction 1 mM)
# TCEP (50 mM in water, 2 vol; final concentration in reaction 1 mM)
# TBTA (10 mM in DMSO, 1 vol; final concentration in reaction 100 µM)
# The click mixture was vortexed and incubated at room temperature for 2 min before 6 μL of the mixture was added to every 100 μL of lysate. […]
smiles,measurement,setting,value
"N#CN1CC[C@H](CC(=O)Nc2cc(-c3cccc(Cl)c3)no2)C1 [compound 1, reference compound]",Difference (log2 fold change of enrichment),"compound 1 out-competition with IMP-2587 labelling, HEK293T (Table S3, Fig.5b)",-0.69
C#Cc1cccc(-c2cc(NC(=O)CC3CCN(C#N)C3)on2)c1 (stereo not drawn) [IMP-2587],Difference (log2 fold change of enrichment),"IMP-2587 labelling vs DMSO, 30 nM, 10 min, HEK293T (Table S2, Fig.5a)",1.77
N#CN1CC[C@@H](NC(=O)c2cc(-c3ccccc3Oc3ccc(N=[N+]=[N-])cc3)n[nH]2)C1 [IMP-2586],Difference (log2 fold change of enrichment),"IMP-2586 labelling vs DMSO, 30 nM, 10 min, HEK293T (Table S4, Fig.5c)",1.53
